Assay results published in patent US20110312945A1, “CRTH2 MODULATORS” (priority 2008, published 2011).

What was measured:
[1] = molecular target: T1, CRTH2 (Homo sapiens, UniProt Q9Y5Y4); assay: Human Whole Blood CD11b Antagonist Assay; assay type: cell-based; settings: eosinophil CD11b expression, challenge with 15R-Methyl-PGD2 (10 nM)
T1 construct: polymorphonuclear cells (0.5 ml; 10^6/ml cells) in PBS containing 0.9 mM CaCl2 and 0.5 mM MgCl2; endogenous in cells; host or cells: polymorphonuclear cells (eosinophils gated by flow cytometry)
T1 sequence (Q9Y5Y4 1-395): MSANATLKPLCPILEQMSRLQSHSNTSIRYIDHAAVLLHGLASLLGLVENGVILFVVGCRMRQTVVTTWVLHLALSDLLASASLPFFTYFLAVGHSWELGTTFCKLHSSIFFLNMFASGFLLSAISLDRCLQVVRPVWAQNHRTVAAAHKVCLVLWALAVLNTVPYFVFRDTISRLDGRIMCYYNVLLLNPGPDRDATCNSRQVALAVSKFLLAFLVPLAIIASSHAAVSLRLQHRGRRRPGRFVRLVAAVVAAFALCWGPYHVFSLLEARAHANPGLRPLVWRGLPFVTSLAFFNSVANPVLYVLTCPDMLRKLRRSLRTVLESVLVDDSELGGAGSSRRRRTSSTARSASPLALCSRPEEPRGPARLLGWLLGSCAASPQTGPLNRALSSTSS
Experimental: Human Whole Blood CD11b Antagonist Assay (modified from Nicholson, et al. Pulmonary Pharmacology and Therapeutics: 20 (2007); 52-59). The potential CRTH2 antagonist activity of certain compounds was tested in human whole blood using an assay that tests the ability of the compounds to block the CD11b expression in eosinophils by 15-R-methyl-PGD2. A CRTH2 antagonist should block CD11b expression by subsequently added 15-Methyl-PGD2. Human whole blood (200 μL) was incubated at 37° C. for 10 minutes in the presence of various concentrations of test compounds before being challenged with the agonist 15R-Methyl-PGD2 (10 nM). Reactions were terminated by the addition of ice-cold PBS+0.5% BSA+2 mMEDTA (1 mL) and centrifugation (300×g for 5 minutes at 4° C.) Cells were then incubated at 4° C. for 10 min in the presence of human IgG. Cells were then incubated for 30-45 min with a mixture of PE-Cy5-labeled mouse anti-human CD16 (10 ul; BD Biosciences) and FITC-labeled mouse anti-human CD11b (10 μL; Beckman Coulter.) After rinsing (1 mL ice-cold PBS+0.5% BSA+2 mMEDTA), red blood cells were lysed by the addition of 1 mL ice-cold H2O to the cell pellet for 30 sec-1 min immediately followed by the addition of 3.5% NaCl (300 μL.) Cells were then rinsed (2x−1 ml ice cold PBS+0.5% BSA+2 mMEDTA) and fixed in PBS containing 1% formaldehyde. The distribution of fluorescence intensities was measured by flow cytometry. Eosinophils were gated out on the basis of their granularity (high side scatter) and absence of CD-16. CD11b was then measured on this eosinophil population on the basis of fluorescence due to FITC.

[2] = molecular target: T1, CRTH2; assay: DPBS CD11b Antagonist Assay; assay type: cell-based; settings: polymorphonuclear cells in PBS, eosinophil CD11b expression, challenge with 15R-Methyl-PGD2 (10 nM)
Experimental: DPBS CD11b Antagonist Assay. The potential CRTH2 antagonist activity of certain compounds was tested using a CD11b expression assay using essentially the method described by Monneret et al. (J Pharmacol Exp Ther 304:349-55, 2003). Briefly, polymorphonuclear cells (0.5 ml; 10^6/ml cells) in PBS containing 0.9 mM CaCl2 and 0.5 mM MgCl2) were preincubated with various concentrations of test compounds at room temperature for 10 minutes before they were challenged with the agonist 15R-Methyl-PGD2 (10 nM). The incubations were terminated by the addition of ice-cold FACSFlow (BD Biosciences; Cat# 342003) and centrifugation (400 g for 5 minutes at 4° C.). The cells were then incubated for 30 minutes at 4° C. with a mixture of PE-labeled mouse anti-human VLA-4 (5 μl; BD Biosciences) and FITC-labeled mouse anti-human CD11b (10 μl; Beckman Coulter). The cells were then incubated with Optilyse C (0.25 ml; Beckman Coulter) for 15 minutes, centrifuged, and then fixed in PBS (0.4 ml; calcium and magnesium free) containing 1% formaldehyde. The distribution of fluorescence intensities among 60,000 cells was measured by flow cytometry. Eosinophils were gated out on the basis of their granularity (high side scatter) and labeling with VLA-4 (PE fluorescence). CD11b was then measured in the eosinophil region on the basis of fluorescence due to FITC. All data were corrected for the value obtained for the corresponding isotope control antibody.

[3] = tested on: DK-PGD2-induced systemic eosinophilia; assay: DK-PGD2-Induced Systemic Eosinophilia in Rats; assay type: in vivo; settings: Rattus norvegicus, Eosinophil; female Sprague-Dawley rats, oral dosing 30 min before intracardiac 10 μg DK-PGD2, blood eosinophils at 60 min
Experimental: DK-PGD2-Induced Systemic Eosinophilia in Rats. Female Sprague-Dawley rats (175-250 g) were dosed orally with test compound (or vehicle). Thirty minutes after dosing, animals were anaesthetized with isoflurane. Following induction of anaesthesia, animals received an intracardiac injection of 10 μg DK-PGD2 in 0.3 ml heparinized (10 U/ml) saline. Control animals received an injection of 0.3 ml heparinized saline. Sixty minutes after the intracardiac injection, animals were again anesthetized with isoflurane and a blood sample was drawn from the abdominal aorta (into heparin) while the rat was anaesthetized but not dead. An aliquot of blood (500 μL) was mixed with an equal volume of 4% dextran (mw 500,000) and the erythrocytes were allowed to settle. A cytospin preparation was made from the resulting leukocyte rich fraction (top) and the cytospin was fixed and stained with Diff-Quick Stain kit (Dade Behring Inc, Newark, Del.). An aliquot of the leukocyte rich fraction was taken for total leukocyte count using flow cytometer (Guava EasyCyte Mini system). Differential leukocyte counts were obtained from the cytospin preparations. Blood eosinophil numbers were determined from the total leukocyte count and the percentage eosinophils.

Compound: Cc1c(Cc2ccc(S(=O)(=O)NC(C)C)cc2)c2c(n1CC(=O)O)CCCC2 [Example I-10, 2-(3-(4-(N-Isopropylsulfamoyl)benzyl)-2-methyl-4,5,6,7-tetrahydro-1H-indol-1-yl)acetic acid]
- IC50 [1]: 100 to 500 nM
- IC50 [2]: < 5 nM

Compound: Cc1c(Cc2ccc(S(=O)(=O)NC(C)C(C)(C)C)cc2)c2c(n1CC(=O)O)CCCC2 (stereo not drawn) [Example I-3, 2-(3-(4-(N-(3,3-Dimethylbutan-2-yl)sulfamoyl)benzyl)-2-methyl-4,5,6,7-tetrahydro-1H-indol-1-yl)acetic acid]
- IC50 [1]: 5 to 100 nM
- IC50 [2]: < 5 nM

Compound: CCOC(=O)N1CCN(S(=O)(=O)c2ccc(Cc3c4c(n(CC(=O)O)c3C)CCCC4)cc2)CC1 [Example I-5, 2-(3-(4-(4-(Ethoxycarbonyl)piperazin-1-ylsulfonyl)benzyl)-2-methyl-4,5,6,7-tetrahydro-1H-indol-1-yl)acetic acid]
- IC50 [1]: 5 to 100 nM
- IC50 [2]: < 5 nM

Compound: Cc1c(Cc2ccc(S(=O)(=O)N3CCCCC3)cc2)c2c(n1CC(=O)O)CCC(C)(C)C2 [Example I-13, 2-(2,5,5-Trimethyl-3-(4-(piperidin-1-ylsulfonyl)benzyl)-4,5,6,7-tetrahydro-1H-indol-1-yl)acetic acid]
- IC50 [1]: 100 to 500 nM
- IC50 [2]: < 5 nM

Compound: Cc1c(Cc2ccccc2S(=O)(=O)N2CCCC2)c2c(n1CC(=O)O)CCC(C)(C)C2 [Example I-14, 2-(2,5,5-Trimethyl-3-(2-(pyrrolidin-1-ylsulfonyl)benzyl)-4,5,6,7-tetrahydro-1H-indol-1-yl)acetic acid]
- IC50 [1]: 5 to 100 nM
- IC50 [2]: < 5 nM

Compound: Cc1c(Cc2ccc(S(=O)(=O)NC3CC3)cc2)c2c(n1CC(=O)O)CCCC2 [Example I-8, 2-(3-(4-(N-Cyclopropylsulfamoyl)benzyl)-2-methyl-4,5,6,7-tetrahydro-1H-indol-1-yl)acetic acid]
- IC50 [1]: 5 to 100 nM
- IC50 [2]: < 5 nM

Compound: Cc1c(Cc2ccccc2S(=O)(=O)N2CCOCC2)c2c(n1CC(=O)O)CCC(F)(F)C2 [Example I-39, 2-(5,5-difluoro-2-methyl-3-(2-(morpholinosulfonyl)benzyl)-4,5,6,7-tetrahydro-1H-indol-1-yl)acetic acid]
- IC50 [1]: < 5 nM
- IC50 [2]: < 5 nM

Compound: Cc1c(Sc2ccc(S(=O)(=O)N3CCCC3)cc2)c2c(n1CC(=O)O)CC(C)(C)CC2=O [Example I-42, 2-(2,6,6-trimethyl-4-oxo-3-(4-(pyrrolidin-1-ylsulfonyl)phenylthio)-4,5,6,7-tetrahydro-1H-indol-1-yl)acetic acid]
- IC50 [1]: > 500 nM
- IC50 [2]: 100 to 500 nM

Compound: Cc1c(Cc2ccccc2S(=O)(=O)N2CCOCC2)c2c(n1[C@@H](C)C(=O)O)CCC(C)(C)C2 [Example I-34, (S)-2-(2,5,5-trimethyl-3-(2-(morpholinosulfonyl)benzyl)-4,5,6,7-tetrahydro-1H-indol-1-yl)propanoic acid]
- IC50 [1]: > 500 nM
- IC50 [2]: 5 to 100 nM

Compound: Cc1c(Cc2ccccc2S(=O)(=O)N2CCOCC2)c2c(n1CC(=O)O)C(C)(C)CCC2 [Example I-36, 2-(2,7,7-trimethyl-3-(2-(morpholinosulfonyl)benzyl)-4,5,6,7-tetrahydro-1H-indol-1-yl)acetic acid]
- IC50 [1]: 5 to 100 nM
- IC50 [2]: < 5 nM

Compound: Cc1c(Cc2ccccc2S(=O)(=O)c2ccccc2)c2c(n1CC(=O)O)CCCC2 [Example I-7, 2-(2-methyl-3-(2-(phenylsulfonyl)benzyl)-4,5,6,7-tetrahydro-1H-indol-1-yl)acetic acid]
- IC50 [1]: 5 to 100 nM
- IC50 [2]: < 5 nM

Compound: CCOC(=O)Cn1c(C)c(Cc2ccccc2S(=O)(=O)c2ccccc2)c2c1CC(C)(C)CC2=O [Example I-63, Ethyl 2-(2,6,6-trimethyl-4-oxo-3-(2-(phenylsulfonyl)benzyl)-4,5,6,7-tetrahydro-1H-indol-1-yl)acetate]
- IC50 [1]: 100 to 500 nM
- IC50 [2]: 100 to 500 nM

Compound: Cc1c(Sc2ccc(S(=O)(=O)N3CCCC3)cc2)c2c(n1CC(=O)O)CCC(C)(C)C2 [Example I-38, 2-(2,5,5-trimethyl-3-(4-(pyrrolidin-1-ylsulfonyl)phenylthio)-4,5,6,7-tetrahydro-1H-indol-1-yl)acetic acid]
- IC50 [1]: > 500 nM
- IC50 [2]: < 5 nM

Compound: Cc1c(Sc2ccc(S(=O)(=O)N3CCOCC3)cc2)c2c(n1CC(=O)O)CC(C)(C)CC2=O [Example I-41, 2-(2,6,6-trimethyl-3-(4-(morpholinosulfonyl)phenylthio)-4-oxo-4,5,6,7-tetrahydro-1H-indol-1-yl)acetic acid]
- IC50 [1]: > 500 nM
- IC50 [2]: 100 to 500 nM

Compound: Cc1c(Cc2ccc(S(=O)(=O)N3CCOCC3)cc2)c2c(n1CC(=O)O)CCCC2 [Example I-6, 2-(2-Methyl-3-(4-(morpholinosulfonyl)benzyl)-4,5,6,7-tetrahydro-1H-indol-1-yl)acetic acid]
- IC50 [1]: 100 to 500 nM
- IC50 [2]: < 5 nM

Compound: Cc1c(Cc2ccccc2S(=O)(=O)c2ccccc2)c2c(n1CC(=O)O)CC(C)(C)CC2=O [Example I-48, 2-(2,6,6-trimethyl-4-oxo-3-(2-(phenylsulfonyl)benzyl)-4,5,6,7-tetrahydro-1H-indol-1-yl)acetic acid]
- IC50 [1]: < 5 nM
- IC50 [2]: < 5 nM

Compound: Cc1c(Cc2ccccc2S(=O)(=O)N2CCOCC2)c2c(n1CC(=O)O)CCC2 [Example I-23, 2-(2-methyl-3-(2-(morpholinosulfonyl)benzyl)-5,6-dihydrocyclopenta[b]pyrrol-1(4H)-yl)acetic acid]
- ED50 [3]: 1 to 10 mg/kg

Compound: Cc1c(Cc2ccc(S(=O)(=O)N3CCCC3)cc2)c2c(n1CC(=O)O)CC(C)(C)CC2=O [Example I-44, 2-(2,6,6-trimethyl-4-oxo-3-(4-(pyrrolidin-1-ylsulfonyl)benzyl)-4,5,6,7-tetrahydro-1H-indol-1-yl)acetic acid]
- IC50 [1]: > 500 nM
- IC50 [2]: > 500 nM

Compound: CCOC(=O)N1CCN(S(=O)(=O)c2ccc(Cc3c4c(n(CC(=O)O)c3C)CCC(C)(C)C4)cc2)CC1 [Example I-12, 2-(3-(4-(4-(Ethoxycarbonyl)piperazin-1-ylsulfonyl)benzyl)-2,5,5-trimethyl-4,5,6,7-tetrahydro-1H-indol-1-yl)acetic acid]
- IC50 [1]: 5 to 100 nM
- IC50 [2]: < 5 nM

Compound: Cc1c(Cc2ccc(S(=O)(=O)N3CCOCC3)cc2)c2c(n1CC(=O)O)CC(C)(C)CC2=O [Example I-45, 2-(2,6,6-trimethyl-3-(4-(morpholinosulfonyl)benzyl)-4-oxo-4,5,6,7-tetrahydro-1H-indol-1-yl)acetic acid]
- IC50 [1]: > 500 nM
- IC50 [2]: > 500 nM
